From ChEMBL document CHEMBL5532697, “Imidazopyrimidine: from a relatively exotic scaffold to an evolving structural motif in drug discovery” (RSC Med Chem, 2024)
≈ marks a conversion by molar mass, not a printed value.

Columns and labels:
MCF7 = test: Antiproliferative activity against human MCF7 cells assessed as inhibition of cell growth incubated for 48 hrs by alamarblue staining based assay; assay type: functional; conditions: MCF7, 48 h
Pyruvate kinase PKM = Pyruvate kinase PKM (Homo sapiens, UniProt P14618); test: Inhibition of recombinant PKM2 (unknown origin)
A549 [1] = test: Antiproliferative activity against human A549 cells assessed as inhibition of cell growth incubated for 48 hrs by alamarblue staining based assay; assay type: functional; conditions: A549, 48 h
COLO 205 = test: Antiproliferative activity against human COLO 205 cells assessed as inhibition of cell growth incubated for 48 hrs by alamarblue staining based assay; assay type: functional; conditions: COLO 205, 48 h
CCRF-CEM = test: Antiproliferative activity against human CCRF-CEM cells assessed as inhibition of cell growth incubated for 72 hrs by MTT assay; assay type: functional, cell-based
HCT-116 = test: Antiproliferative activity against human HCT-116 cells assessed as inhibition of cell growth incubated for 72 hrs by MTT assay; assay type: functional, cell-based; conditions: HCT-116, 72 h
CEM-DNR = test: Antiproliferative activity against human CEM-DNR cells assessed as inhibition of cell growth incubated for 72 hrs by MTT assay; assay type: functional, cell-based
A549 [2] = test: Antiproliferative activity against human A549 cells assessed as inhibition of cell growth incubated for 72 hrs by MTT assay; assay type: functional, cell-based; conditions: A549, 72 h
K562 = test: Antiproliferative activity against human K562 cells assessed as inhibition of cell growth incubated for 72 hrs by MTT assay; assay type: functional, cell-based; conditions: K562, 72 h
[3] = Cytotoxicity against human HFF cells assessed as cell growth inhibition by celltiter-glo assay; assay type: toxicity, cell-based
BK polyomavirus = test: Antiviral activity against BK polyomavirus MM infected in human HFF cells assessed as reduction in viral growth incubated for 7 days; assay type: functional, organism-based; conditions: Betapolyomavirus hominis, 168 h
Aorta = test: Vasorelaxant activity in rabbit aorta assessed as inhibition of phenylephrine-induced contraction; assay type: functional, tissue-based; conditions: Oryctolagus cuniculus
[4] = biological target: cAMP and cAMP-inhibited cGMP 3',5'-cyclic phosphodiesterase 10A (Homo sapiens, UniProt Q9Y233); test: Inhibition of full length human PDE10A incubated for 1 hr by topcount Scintillation plate reader analysis
Kluyveromyces marxianus [5] = test: Antifungal activity against Candida kefyr assessed as reduction in fungal growth incubated for 24 hrs by CLSI based assay; assay type: functional
Pichia kudriavzevii = test: Antifungal activity against Candida krusei ATCC 6358 assessed as reduction in fungal growth incubated for 24 hrs by CLSI based assay; assay type: functional
Candida dubliniensis = test: Antifungal activity against Candida dubliniensis CD36 assessed as reduction in fungal growth incubated for 24 hrs by CLSI based assay; assay type: functional
Candida albicans [6] = test: Antifungal activity against Candida albicans ATCC 10231 assessed as reduction in fungal growth incubated for 24 hrs by CLSI based assay; assay type: functional
[7] = system: Meyerozyma guilliermondii; test: Antifungal activity against Meyerozyma guilliermondii assessed as reduction in fungal growth incubated for 24 hrs by CLSI based assay; assay type: functional
Nakaseomyces glabratus = test: Antifungal activity against Candida glabrata CBS138 assessed as reduction in fungal growth incubated for 24 hrs by CLSI based assay; assay type: functional
Candida tropicalis = test: Antifungal activity against Candida tropicalis MYA-3404 assessed as reduction in fungal growth incubated for 24 hrs by CLSI based assay; assay type: functional
Albumin = Albumin (Homo sapiens, UniProt P02768); test: Inhibition of Albumin (unknown origin) denaturation at 100 uM relative to control
A549 [8] = test: Antiproliferative activity against human A549 cells assessed as inhibition of cell growth by MTT assay; assay type: functional, cell-based
Cryptococcus neoformans = test: Antifungal activity against Cryptococcus neoformans NCPF 250316 assessed as inhibition of fungal growth incubated for 48 hrs; assay type: functional
Kluyveromyces marxianus [9] = test: Antifungal activity against Candida keyfer […] 410004 assessed as inhibition of fungal growth incubated for 48 hrs; assay type: functional
Aspergillus niger = test: Antifungal activity against Aspergillus niger assessed as inhibition of fungal growth incubated for 48 hrs; assay type: functional
Candida albicans [10] = test: Antifungal activity against Candida albicans NCPF 400034 assessed as inhibition of fungal growth incubated for 48 hrs; assay type: functional
Neurospora crassa = test: Antifungal activity against Neurospora crassa assessed as inhibition of fungal growth incubated for 48 hrs; assay type: functional

Sequence of Pyruvate kinase PKM (P14618 whole entry): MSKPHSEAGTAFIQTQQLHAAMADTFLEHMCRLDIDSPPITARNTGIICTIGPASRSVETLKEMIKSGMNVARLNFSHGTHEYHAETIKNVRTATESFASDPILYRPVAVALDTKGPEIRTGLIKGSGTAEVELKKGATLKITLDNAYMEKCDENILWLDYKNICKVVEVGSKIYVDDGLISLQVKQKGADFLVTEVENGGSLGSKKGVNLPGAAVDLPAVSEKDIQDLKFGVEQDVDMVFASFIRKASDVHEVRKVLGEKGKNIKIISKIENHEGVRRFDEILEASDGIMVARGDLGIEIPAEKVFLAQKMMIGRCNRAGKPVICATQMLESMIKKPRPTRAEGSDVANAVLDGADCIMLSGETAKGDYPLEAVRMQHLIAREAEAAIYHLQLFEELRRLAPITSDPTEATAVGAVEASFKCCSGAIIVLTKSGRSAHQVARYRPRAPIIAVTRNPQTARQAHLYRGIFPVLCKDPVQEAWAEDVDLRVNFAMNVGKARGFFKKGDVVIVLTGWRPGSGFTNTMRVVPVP
Sequence of cAMP and cAMP-inhibited cGMP 3',5'-cyclic phosphodiesterase 10A (Q9Y233 whole entry): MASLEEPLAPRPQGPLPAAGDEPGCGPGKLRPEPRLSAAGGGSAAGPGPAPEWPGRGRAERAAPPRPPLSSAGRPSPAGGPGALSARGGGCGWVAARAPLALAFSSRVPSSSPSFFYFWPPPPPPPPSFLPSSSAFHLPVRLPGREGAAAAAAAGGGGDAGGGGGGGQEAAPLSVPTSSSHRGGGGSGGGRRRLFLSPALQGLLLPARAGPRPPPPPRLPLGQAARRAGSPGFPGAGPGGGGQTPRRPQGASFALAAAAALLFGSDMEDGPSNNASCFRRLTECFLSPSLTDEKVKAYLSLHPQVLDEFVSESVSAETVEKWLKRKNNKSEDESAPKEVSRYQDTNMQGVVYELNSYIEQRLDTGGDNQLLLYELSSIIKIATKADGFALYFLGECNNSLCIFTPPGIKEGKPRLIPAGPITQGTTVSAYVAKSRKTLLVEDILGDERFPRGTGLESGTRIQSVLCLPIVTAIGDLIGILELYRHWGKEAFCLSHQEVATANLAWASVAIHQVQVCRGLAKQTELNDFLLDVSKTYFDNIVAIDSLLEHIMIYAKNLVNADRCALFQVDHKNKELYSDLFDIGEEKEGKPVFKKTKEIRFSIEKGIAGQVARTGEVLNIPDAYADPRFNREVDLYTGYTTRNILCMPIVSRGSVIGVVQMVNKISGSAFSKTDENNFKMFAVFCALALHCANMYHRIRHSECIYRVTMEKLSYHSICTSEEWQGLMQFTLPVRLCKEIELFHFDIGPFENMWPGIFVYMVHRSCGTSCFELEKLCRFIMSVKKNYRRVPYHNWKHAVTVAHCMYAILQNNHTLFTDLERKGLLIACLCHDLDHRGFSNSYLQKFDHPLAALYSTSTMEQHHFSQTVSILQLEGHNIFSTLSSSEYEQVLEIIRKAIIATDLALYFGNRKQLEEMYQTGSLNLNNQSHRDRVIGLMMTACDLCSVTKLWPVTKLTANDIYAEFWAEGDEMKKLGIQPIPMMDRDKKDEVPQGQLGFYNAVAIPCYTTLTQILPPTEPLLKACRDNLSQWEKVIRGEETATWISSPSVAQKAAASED
Sequence of Albumin (P02768 whole entry): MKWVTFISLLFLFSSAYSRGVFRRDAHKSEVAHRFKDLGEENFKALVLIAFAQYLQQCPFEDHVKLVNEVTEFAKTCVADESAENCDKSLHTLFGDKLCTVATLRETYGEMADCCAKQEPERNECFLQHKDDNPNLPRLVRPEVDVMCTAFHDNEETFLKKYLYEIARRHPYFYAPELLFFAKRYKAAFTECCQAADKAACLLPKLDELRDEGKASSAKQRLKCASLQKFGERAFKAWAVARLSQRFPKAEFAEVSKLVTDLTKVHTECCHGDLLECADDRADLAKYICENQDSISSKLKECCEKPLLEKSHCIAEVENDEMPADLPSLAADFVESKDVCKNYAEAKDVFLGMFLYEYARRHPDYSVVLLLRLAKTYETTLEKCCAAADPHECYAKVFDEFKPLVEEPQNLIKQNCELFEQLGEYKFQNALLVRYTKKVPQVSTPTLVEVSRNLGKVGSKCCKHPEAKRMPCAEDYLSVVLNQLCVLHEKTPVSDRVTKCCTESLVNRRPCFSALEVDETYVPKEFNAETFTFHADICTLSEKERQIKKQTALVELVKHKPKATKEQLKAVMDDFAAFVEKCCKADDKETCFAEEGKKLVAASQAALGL

## COc1ccccc1N1CCN(CC(=O)c2cnc3ncccn23)CC1
MCF7
  IC50: 12.2 µM
Pyruvate kinase PKM
  IC50: 27 nM
A549 [1]
  IC50: 26.2 µM
COLO 205
  IC50: 64.8 µM

## O=C(CN1CCN(c2ccccc2)CC1)c1cnc2ncccn12
MCF7
  IC50: 13.5 µM
Pyruvate kinase PKM
  IC50: 50 nM
A549 [1]
  IC50: 28.5 µM
COLO 205
  IC50: 73.5 µM

## N#Cc1ccc(-c2c[nH]c(=O)n3ccnc23)cc1
CCRF-CEM
  IC50: 1450 nM
HCT-116
  IC50: 42.5 µM
CEM-DNR
  IC50: 18.8 µM
A549 [2]
  IC50: 5.07 µM
K562
  IC50: 17.7 µM

## O=C(CN1CCN(c2ccco2)CC1)c1cnc2ncccn12
MCF7
  IC50: 10.9 µM
Pyruvate kinase PKM
  IC50: 310 nM
A549 [1]
  IC50: 19.4 µM
COLO 205
  IC50: 61 µM

## CS(=O)(=O)C1=CNC(=O)N2CCN=C12
[3]
  CC50: > 150 µM
BK polyomavirus
  EC50: 22.4 µM

## Nc1cc(N)nc(-c2nc(Cc3ccccc3F)c3ncccn23)n1
Aorta
  IC50: 1050 nM

## O=C(CN1CCN(c2ccc(Cl)cc2)CC1)c1cnc2ncccn12
MCF7
  IC50: 12.9 µM
Pyruvate kinase PKM
  IC50: 790 nM
A549 [1]
  IC50: 37.5 µM
COLO 205
  IC50: 28 µM

## Cc1c(C(=O)NCc2cocn2)cnn1C(=O)Nc1ccn2cc(-c3ccccc3)nc2n1
[4]
  IC50: 1 nM

## CC(=O)N1CCN(c2ccc(OCC3COC(Cn4ccnc4)(c4ccc(Cl)cc4Cl)O3)cc2)CC1 (stereo unspecified) [KETOCONAZOLE]
Kluyveromyces marxianus [5]
  MIC: 0.25 µg/mL (≈ 0.47 µM)
Pichia kudriavzevii
  MIC: 1 µg/mL (≈ 1.88 µM)
Candida dubliniensis
  MIC: 2 µg/mL (≈ 3.76 µM)
Candida albicans [6]
  MIC: 8 µg/mL (≈ 15.1 µM)
[7]
  MIC: 0.125 µg/mL (≈ 0.235 µM)
Nakaseomyces glabratus
  MIC: 0.25 µg/mL (≈ 0.47 µM)
Candida tropicalis
  MIC: 2 µg/mL (≈ 3.76 µM)

## c1ccc(-c2ccc(-c3cn4cccnc4n3)cc2)cc1
Albumin
  inhibition at 100 µM: 96.4%

## CC(=O)NC1(Cc2ccc(O)cc2)C(=O)N=C2N=CC=CN21 (stereo unspecified)
A549 [8]
  IC50: 6.4 µM

## Cc1c(C(=O)N2CCC2)cnn1C(=O)Nc1ccn2cc(-c3ccc(Cl)s3)nc2n1
[4]
  IC50: 4 nM

## C[C@@H]1[C@H](O)[C@@H](C)/C=C/C=C/C=C/C=C/C=C/C=C/C=C/[C@H](O[C@@H]2O[C@H](C)[C@@H](O)[C@H](N)[C@@H]2O)C[C@@H]2O[C@](O)(C[C@@H](O)C[C@@H](O)[C@H](O)CC[C@@H](O)C[C@@H](O)CC(=O)O[C@H]1C)C[C@H](O)[C@H]2C(=O)O [AMPHOTERICIN B]
Cryptococcus neoformans
  MIC: 0.2 µg/mL (≈ 0.216 µM)
Kluyveromyces marxianus [9]
  MIC: 12.5 µg/mL (≈ 13.5 µM)
Aspergillus niger
  MIC: 0.39 µg/mL (≈ 0.422 µM)
Candida albicans [10]
  MIC: 0.78 µg/mL (≈ 0.844 µM)
Neurospora crassa
  MIC: 0.39 µg/mL (≈ 0.422 µM)

## Cc1c(C(=O)NCc2c[nH]cn2)cnn1C(=O)Nc1ccn2cc(-c3ccccc3)nc2n1
[4]
  IC50: 2 nM

## Cc1c(C(=O)N2CCC2)cnn1CC(=O)Nc1ccn2cc(-c3ccccc3)nc2n1
[4]
  IC50: 4 nM

## O=C(c1ccc(Cl)cc1)c1cnc2ncccn12
Kluyveromyces marxianus [5]
  MIC: 0.125 µg/mL (≈ 0.485 µM)
Pichia kudriavzevii
  MIC: 0.5 µg/mL (≈ 1.94 µM)
Candida dubliniensis
  MIC: 0.5 µg/mL (≈ 1.94 µM)
Candida albicans [6]
  MIC: 0.25 µg/mL (≈ 0.97 µM)
[7]
  MIC: 0.062 µg/mL (≈ 0.241 µM)
Nakaseomyces glabratus
  MIC: 1 µg/mL (≈ 3.88 µM)
Candida tropicalis
  MIC: 0.031 µg/mL (≈ 0.12 µM)

## Cc1ccc(S(=O)(=O)C2=CN(c3ccccc3)C(=O)N3CCN=C23)cc1
[3]
  CC50: > 150 µM
BK polyomavirus
  EC50: 93 µM

## O=C(c1ccc(F)cc1)c1cnc2ncccn12
Kluyveromyces marxianus [5]
  MIC: 0.125 µg/mL (≈ 0.518 µM)
Pichia kudriavzevii
  MIC: 0.5 µg/mL (≈ 2.07 µM)
Candida dubliniensis
  MIC: 0.5 µg/mL (≈ 2.07 µM)
Candida albicans [6]
  MIC: 0.062 µg/mL (≈ 0.257 µM)
[7]
  MIC: 0.25 µg/mL (≈ 1.04 µM)
Nakaseomyces glabratus
  MIC: 0.031 µg/mL (≈ 0.129 µM)
Candida tropicalis
  MIC: 0.25 µg/mL (≈ 1.04 µM)

## Cc1c(C(=O)N2CCCC2)cnn1C(=O)Nc1ccn2cc(-c3ccccc3)nc2n1
[4]
  IC50: 3 nM

## CC(=O)NC1(Cc2cccc3ccccc23)C(=O)N=C2N=CC=CN21 (stereo unspecified)
A549 [8]
  IC50: 2.6 µM

## COc1ccc(C(=O)N2CCN(CC(=O)c3cnc4ncccn34)CC2)cc1
MCF7
  IC50: 11.6 µM
Pyruvate kinase PKM
  IC50: 314 nM
A549 [1]
  IC50: 24 µM
COLO 205
  IC50: 44.9 µM

## CCOC(=O)c1ccc(-c2cn3cccnc3n2)cc1
Albumin
  inhibition at 100 µM: 54.2%

## COc1ccc(-c2cn3cccnc3n2)cc1
Albumin
  inhibition at 100 µM: 40.9%
